What follows are compounds tested against T1, PARK7 (Homo sapiens, UniProt Q99497) (assay: High-throughput screen of the crude compound library, PARK7 fluorescence polarization (FP) assay with FP reagent JYQ-107). Conditions: 1.25 µM, crude compound library, FP reagent JYQ-107; read-out: HTS FP assay %Inhibition (1.25 µM).
T1 sequence (Q99497 1-189): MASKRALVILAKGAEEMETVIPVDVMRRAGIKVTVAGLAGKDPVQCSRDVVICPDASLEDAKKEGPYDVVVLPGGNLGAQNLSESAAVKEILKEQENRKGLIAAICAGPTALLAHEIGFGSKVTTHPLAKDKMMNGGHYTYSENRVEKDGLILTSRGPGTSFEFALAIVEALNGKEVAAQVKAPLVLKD
Type: biochemical

Compound	inhibition at 1.25 µM [%]
N#CN1CC[C@@H](C(=O)Nc2nc3c(s2)CN(C(=O)Cc2csc(-c4ccccc4)n2)CC3)C1 [compound 346]	61.9
Cc1ccccc1-n1cc(C(=O)N2CCc3nc(NC(=O)[C@@H]4CCN(C#N)C4)sc3C2)cn1 [compound 347]	87.5
N#CN1CC[C@@H](C(=O)Nc2nc3c(s2)CN(C(=O)c2cccnc2-n2cccn2)CC3)C1 [compound 348]	71.9
CCn1nc(C(C)C)cc1C(=O)N1CCCCC1C(=O)N1CCc2nc(NC(=O)[C@@H]3CCN(C#N)C3)sc2C1 (stereo partly shown) [compound 349]	59.6
Cn1nc(C2CCC2)cc1C(=O)N1CCc2nc(NC(=O)[C@@H]3CCN(C#N)C3)sc2C1 [compound 350]	84.3
N#CN1CC[C@@H](C(=O)Nc2nc3c(s2)CN(C(=O)c2cccc(Oc4nccs4)c2)CC3)C1 [compound 351]	88.9
CNS(=O)(=O)c1ccc(-c2ccccc2OC(F)(F)F)c(C(=O)N2CCc3nc(NC(=O)[C@@H]4CCN(C#N)C4)sc3C2)c1 [compound 352]	72
N#CN1CC[C@@H](C(=O)Nc2nc3c(s2)CN(C(=O)Cc2ccc(OCc4ccccn4)cc2)CC3)C1 [compound 353]	73.2
N#CN1CC[C@@H](C(=O)Nc2nc3c(s2)CN(C(=O)c2cc(S(=O)(=O)Nc4cccc(F)c4)ccc2F)CC3)C1 [compound 354]	72.5
N#CN1CC[C@@H](C(=O)Nc2nc3c(s2)CN(C(=O)c2ncn(-c4ccccc4)n2)CC3)C1 [compound 355]	85.3
N#CN1CC[C@@H](C(=O)Nc2nc3c(s2)CN(C(=O)C2CCCN(c4ccc(Cl)nn4)C2)CC3)C1 (stereo partly shown) [compound 356]	76.2
N#CN1CC[C@@H](C(=O)Nc2nc3c(s2)CN(C(=O)c2cn[nH]c2C2CC2)CC3)C1 [compound 357]	69.7
N#CN1CC[C@@H](C(=O)Nc2nc3c(s2)CN(C(=O)C2CCCN(c4ncccc4C(F)(F)F)C2)CC3)C1 (stereo partly shown) [compound 358]	77.6
N#CN1CC[C@@H](C(=O)Nc2nc3c(s2)CN(C(=O)c2nn(-c4ccccc4)c(=O)[nH]c2=O)CC3)C1 [compound 359]	67.9
Cn1cc(-c2nc(C(=O)N3CCc4nc(NC(=O)[C@@H]5CCN(C#N)C5)sc4C3)cs2)cn1 [compound 360]	72.2
N#CN1CC[C@@H](C(=O)Nc2nc3c(s2)CN(C(=O)c2ncsc2Cc2ccccc2)CC3)C1 [compound 361]	82.9
N#CN1CC[C@@H](C(=O)Nc2nc3c(s2)CN(C(=O)C2CCN(C(=O)N4CCOCC4)CC2)CC3)C1 [compound 362]	71.7
Cc1n[nH]c(C)c1Cc1ccc(C(=O)N2CCc3nc(NC(=O)[C@@H]4CCN(C#N)C4)sc3C2)o1 [compound 363]	78.9
CC1=NN(c2cccc(Br)c2)C(=O)C1CC(=O)N1CCc2nc(NC(=O)[C@@H]3CCN(C#N)C3)sc2C1 (stereo partly shown) [compound 364]	73
CCn1ccc(-c2cc(C(=O)N3CCc4nc(NC(=O)[C@@H]5CCN(C#N)C5)sc4C3)no2)n1 [compound 365]	78.3
N#CN1CC[C@@H](C(=O)Nc2nc3c(s2)CN(C(=O)c2ccc(Cn4ccccc4=O)o2)CC3)C1 [compound 366]	79.5

Compound	inhibition at 1.25 µM [%]
CC(C)n1nccc1[C@@H]1OCC[C@H]1C(=O)N1CCc2nc(NC(=O)[C@@H]3CCN(C#N)C3)sc2C1 [compound 367]	65
N#CN1CC[C@@H](C(=O)Nc2nc3c(s2)CN(C(=O)c2cnc(-c4cccnc4)s2)CC3)C1 [compound 368]	69.2
N#CN1CC[C@@H](C(=O)Nc2nc3c(s2)CN(C(=O)C2CC(=O)N(OCc4ccccc4)C2)CC3)C1 (stereo partly shown) [compound 370]	72.4
N#CN1CC[C@@H](C(=O)Nc2nc3c(s2)CN(C(=O)CC2CCN(c4ccc(Cl)nn4)CC2)CC3)C1 [compound 371]	74.8
N#CN1CC[C@@H](C(=O)Nc2nc3c(s2)CN(C(=O)c2cnn(CC4CCC4)c2)CC3)C1 [compound 372]	81.6
N#CN1CC[C@@H](C(=O)Nc2nc3c(s2)CN(C(=O)Cc2csc(C4CC4)n2)CC3)C1 [compound 373]	81.4
N#CN1CC[C@@H](C(=O)Nc2nc3c(s2)CN(C(=O)c2cc(C4CCC4)on2)CC3)C1 [compound 374]	84
N#CN1CC[C@@H](C(=O)Nc2nc3c(s2)CN(C(=O)C(c2ccccc2)n2cccc2)CC3)C1 (stereo partly shown) [compound 375]	68.5
N#CN1CC[C@@H](C(=O)Nc2nc3c(s2)CN(C(=O)c2nc(N4CCOCC4)ncc2Cl)CC3)C1 [compound 376]	70.8
N#CN1CC[C@@H](C(=O)Nc2nc3c(s2)CN(C(=O)C2CCCCN2S(=O)(=O)c2ccc(Br)s2)CC3)C1 (stereo partly shown) [compound 377]	76.2
CC(C)c1cc(C(=O)N2CCc3nc(NC(=O)[C@@H]4CCN(C#N)C4)sc3C2)n(-c2ccccc2)n1 [compound 378]	87
N#CN1CC[C@@H](C(=O)Nc2nc3c(s2)CN(C(=O)c2ccc(-c4ncon4)cc2)CC3)C1 [compound 379]	75.2
N#CN1CC[C@@H](C(=O)Nc2nc3c(s2)CN(C(=O)C(CCc2ccccc2)c2ccccc2)CC3)C1 (stereo partly shown) [compound 380]	80.3
COC1CC(C(=O)N2CCc3nc(NC(=O)[C@@H]4CCN(C#N)C4)sc3C2)N(C(=O)OCc2ccccc2)C1 (stereo partly shown) [compound 382]	75.9
Cc1cccc(COc2cccc(C(=O)N3CCc4nc(NC(=O)[C@@H]5CCN(C#N)C5)sc4C3)c2)c1 [compound 383]	87.5
Cn1cc(-c2cc(C(=O)N3CCc4nc(NC(=O)[C@@H]5CCN(C#N)C5)sc4C3)no2)cn1 [compound 384]	83
N#CN1CC[C@@H](C(=O)Nc2nc3c(s2)CN(C(=O)Cc2ccc(NS(=O)(=O)c4cccc(C(F)(F)F)c4)cc2)CC3)C1 [compound 385]	81
N#CN1CC[C@@H](C(=O)Nc2nc3c(s2)CN(C(=O)c2ccc(S(=O)(=O)N4CCCCCC4)cc2)CC3)C1 [compound 387]	74.8
CSCCC(NC(C)=O)C(=O)N1CCc2nc(NC(=O)[C@@H]3CCN(C#N)C3)sc2C1 (stereo partly shown) [compound 388]	-53.2
CC(=O)NCC(=O)N1CCc2nc(NC(=O)[C@@H]3CCN(C#N)C3)sc2C1 [compound 389]	71.7

Same assay, conditions: 1.25 µM, crude compound library; read-out: HTS FP assay %Inhibition (1.25 µM)

Compound	inhibition at 1.25 µM [%]
N#CN1CC[C@@H](C(=O)Nc2nc3c(s2)CN(C(=O)c2ccc(OCc4cccnc4)cc2)CC3)C1 [compound 317]	76.2
CCn1cc([C@@H]2OCCC[C@H]2C(=O)N2CCc3nc(NC(=O)[C@@H]4CCN(C#N)C4)sc3C2)cn1 [compound 318]	65.8
N#CN1CC[C@@H](C(=O)Nc2nc3c(s2)CN(C(=O)c2ccc(C#Cc4ccccc4)cc2)CC3)C1 [compound 319]	75.9
N#CN1CC[C@@H](C(=O)Nc2nc3c(s2)CN(C(=O)C2CCN2C2CCCC2)CC3)C1 (stereo partly shown) [compound 320]	64.2
N#CN1CC[C@@H](C(=O)Nc2nc3c(s2)CN(C(=O)c2cc(S(=O)(=O)Nc4nccs4)ccc2F)CC3)C1 [compound 321]	81.4
N#CN1CC[C@@H](C(=O)Nc2nc3c(s2)CN(C(=O)C2CCCN2C(=O)C2CC2)CC3)C1 (stereo partly shown) [compound 322]	67.1
N#CN1CC[C@@H](C(=O)Nc2nc3c(s2)CN(C(=O)C(OC2CCOCC2)c2ccccc2)CC3)C1 (stereo partly shown) [compound 323]	67.7
N#CN1CC[C@@H](C(=O)Nc2nc3c(s2)CN(C(=O)CCn2ccc(C(=O)N4CCCC4)n2)CC3)C1 [compound 324]	64.4
N#CN1CC[C@@H](C(=O)Nc2nc3c(s2)CN(C(=O)c2ccccc2OCc2cccs2)CC3)C1 [compound 325]	86.9
N#CN1CC[C@@H](C(=O)Nc2nc3c(s2)CN(C(=O)c2c[nH]nc2-c2ccncc2)CC3)C1 [compound 326]	69.7
COc1ccccc1N1CC(C(=O)N2CCc3nc(NC(=O)[C@@H]4CCN(C#N)C4)sc3C2)CCC1=O (stereo partly shown) [compound 327]	70
Cn1nccc1[C@@H]1C[C@H]1C(=O)N1CCc2nc(NC(=O)[C@@H]3CCN(C#N)C3)sc2C1 [compound 328]	79.7
N#CN1CC[C@@H](C(=O)Nc2nc3c(s2)CN(C(=O)C2CCCN(c4ncccn4)C2)CC3)C1 (stereo partly shown) [compound 329]	71.1
N#CN1CC[C@@H](C(=O)Nc2nc3c(s2)CN(C(=O)c2ccc(-c4ccncc4)[nH]c2=O)CC3)C1 [compound 330]	64.2
Cc1onc(C(=O)N2CCc3nc(NC(=O)[C@@H]4CCN(C#N)C4)sc3C2)c1CN1CCN(C)CC1 [compound 331]	57.9
N#CN1CC[C@@H](C(=O)Nc2nc3c(s2)CN(C(=O)c2cccn2Cc2ccccn2)CC3)C1 [compound 332]	73.2
N#CN1CC[C@@H](C(=O)Nc2nc3c(s2)CN(C(=O)c2cc(COc4ccc(F)cc4F)on2)CC3)C1 [compound 335]	79.4
Cc1cc(C)n(-c2ccc(Cl)c(C(=O)N3CCc4nc(NC(=O)[C@@H]5CCN(C#N)C5)sc4C3)n2)n1 [compound 338]	68.4
N#CN1CC[C@@H](C(=O)Nc2nc3c(s2)CN(C(=O)Cc2csc(NS(=O)(=O)c4ccccc4)n2)CC3)C1 [compound 339]	82.7
N#CN1CC[C@@H](C(=O)Nc2nc3c(s2)CN(C(=O)Cc2coc(-c4cccs4)n2)CC3)C1 [compound 341]	87
COc1ccc(S(=O)(=O)N(CCC(=O)N2CCc3nc(NC(=O)[C@@H]4CCN(C#N)C4)sc3C2)Cc2ccccc2)cc1 [compound 342]	85.1
Cc1oc(-c2ccsc2)nc1CC(=O)N1CCc2nc(NC(=O)[C@@H]3CCN(C#N)C3)sc2C1 [compound 343]	74.3
Cc1ccc(C=CS(=O)(=O)N2CCC(C(=O)N3CCc4nc(NC(=O)[C@@H]5CCN(C#N)C5)sc4C3)CC2)cc1 [compound 344]	72

— paper PMC11129182, “Development of Inhibitors, Probes, and PROTAC Provides a Complete Toolbox to Study PARK7 in the Living Cell” (Journal of Medicinal Chemistry, 2024)
